Source: ChEMBL document CHEMBL1201862, “PubChem BioAssay data set” (2004)
Calls of active or inactive are those of the source.

Columns and labels:
[1] = target: Large T antigen (Simian virus 40, UniProt P03070); assay type: functional, Betapolyomavirus macacae;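 note: Confirmatory-stage PubChem screen for compounds that inhibit SV40 T antigen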
[2] = target: Induced myeloid leukemia cell differentiation protein Mcl-1 (Homo sapiens, UniProt Q07820); assay type: functional
[3] = target: Dual specificity protein phosphatase 3 (Homo sapiens, UniProt P51452); experiment: SAR VHR1 Fluorescent Assay for In Vitro dose response studies. [Related pubchem assays (depositor defined):AID1654, AID1661, AID1878, AID1992, AID2004, AID2070, AID2085]; assay type: functional
[4] = test system: Salmon testes DNA; experiment: DNA intercalators displacing acridine orange, dose response, artefact control for KSHV LANA DNA-binding inhibitor project, biochemical, fluorescence polarization, cherry-picked samples, set 2 (AID 504727); parameters: species or system Salmonidae
[5] = target: T1, ORF 73 (Human herpesvirus 8, UniProt O40947); experiment: inhibitors of C-LANA binding to LBS DNA, dose response, biochemical, fluorescence polarization, cherry-picked samples (AID 504725); parameters: species or system Human gammaherpesvirus 8;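 note: fluorescence polarization of a labeled DNA duplex reporting LANA DNA binding; potency is for inhibitors that block LANA binding to the DNA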
T1 sequence (O40947 whole entry): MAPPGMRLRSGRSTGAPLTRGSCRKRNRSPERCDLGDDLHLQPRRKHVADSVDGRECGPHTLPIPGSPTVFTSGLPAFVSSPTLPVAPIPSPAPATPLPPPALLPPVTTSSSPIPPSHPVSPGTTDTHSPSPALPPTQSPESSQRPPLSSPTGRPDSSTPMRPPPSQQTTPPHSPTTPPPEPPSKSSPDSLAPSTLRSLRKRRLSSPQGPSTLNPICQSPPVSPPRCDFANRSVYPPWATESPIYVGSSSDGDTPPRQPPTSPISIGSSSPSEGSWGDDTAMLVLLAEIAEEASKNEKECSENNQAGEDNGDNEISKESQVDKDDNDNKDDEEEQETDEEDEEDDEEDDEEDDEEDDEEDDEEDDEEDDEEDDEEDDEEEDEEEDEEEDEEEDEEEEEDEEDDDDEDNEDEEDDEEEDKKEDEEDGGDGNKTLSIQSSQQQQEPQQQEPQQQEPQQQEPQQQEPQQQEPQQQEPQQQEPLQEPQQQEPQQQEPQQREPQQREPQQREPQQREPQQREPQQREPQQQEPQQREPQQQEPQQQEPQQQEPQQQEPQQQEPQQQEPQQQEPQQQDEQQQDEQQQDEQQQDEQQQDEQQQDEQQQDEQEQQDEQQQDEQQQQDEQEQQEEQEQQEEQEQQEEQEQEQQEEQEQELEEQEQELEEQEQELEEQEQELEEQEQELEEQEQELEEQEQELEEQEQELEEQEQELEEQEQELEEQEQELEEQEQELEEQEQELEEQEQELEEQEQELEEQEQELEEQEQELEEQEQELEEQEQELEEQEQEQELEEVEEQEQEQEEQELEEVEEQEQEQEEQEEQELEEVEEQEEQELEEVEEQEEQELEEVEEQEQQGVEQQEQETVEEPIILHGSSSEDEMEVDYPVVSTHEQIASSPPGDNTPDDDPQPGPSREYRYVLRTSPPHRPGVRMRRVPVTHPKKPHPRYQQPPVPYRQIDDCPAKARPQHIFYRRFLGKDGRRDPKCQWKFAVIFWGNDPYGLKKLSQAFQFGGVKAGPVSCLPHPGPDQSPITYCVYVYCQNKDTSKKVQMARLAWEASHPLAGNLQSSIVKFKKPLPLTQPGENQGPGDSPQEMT

[6] = target: T2, Tyrosine-protein phosphatase non-receptor type 7 (Homo sapiens, UniProt P35236); experiment: redox-dependent HePTP inhibition, mechanism study, biochemical, fluorescence (AID 2068); assay type: functional
T2 sequence (P35236 whole entry): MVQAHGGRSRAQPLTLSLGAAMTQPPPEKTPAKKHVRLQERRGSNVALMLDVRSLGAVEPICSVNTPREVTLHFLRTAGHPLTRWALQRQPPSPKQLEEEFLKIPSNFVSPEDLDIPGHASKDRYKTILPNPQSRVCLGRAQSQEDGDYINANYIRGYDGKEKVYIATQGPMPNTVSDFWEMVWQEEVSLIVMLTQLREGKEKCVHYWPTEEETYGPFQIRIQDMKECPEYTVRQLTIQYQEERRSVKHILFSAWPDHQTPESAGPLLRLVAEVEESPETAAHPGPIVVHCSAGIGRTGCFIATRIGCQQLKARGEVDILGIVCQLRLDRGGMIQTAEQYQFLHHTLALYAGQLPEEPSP

[7] = target: Eukaryotic translation initiation factor 4E (Mus musculus, UniProt P63073); experiment: eIF4E–eIF4G protein interaction inhibitors, dose response, biochemical, TR-FRET (AID 855); assay type: functional;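 note: potency for disrupting eIF4E binding to eIF4GI seen as loss of FRET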
[8] = target: T3, Apoptotic protease-activating factor 1 (Homo sapiens, UniProt O14727); assay type: functional
T3 sequence (O14727 whole entry): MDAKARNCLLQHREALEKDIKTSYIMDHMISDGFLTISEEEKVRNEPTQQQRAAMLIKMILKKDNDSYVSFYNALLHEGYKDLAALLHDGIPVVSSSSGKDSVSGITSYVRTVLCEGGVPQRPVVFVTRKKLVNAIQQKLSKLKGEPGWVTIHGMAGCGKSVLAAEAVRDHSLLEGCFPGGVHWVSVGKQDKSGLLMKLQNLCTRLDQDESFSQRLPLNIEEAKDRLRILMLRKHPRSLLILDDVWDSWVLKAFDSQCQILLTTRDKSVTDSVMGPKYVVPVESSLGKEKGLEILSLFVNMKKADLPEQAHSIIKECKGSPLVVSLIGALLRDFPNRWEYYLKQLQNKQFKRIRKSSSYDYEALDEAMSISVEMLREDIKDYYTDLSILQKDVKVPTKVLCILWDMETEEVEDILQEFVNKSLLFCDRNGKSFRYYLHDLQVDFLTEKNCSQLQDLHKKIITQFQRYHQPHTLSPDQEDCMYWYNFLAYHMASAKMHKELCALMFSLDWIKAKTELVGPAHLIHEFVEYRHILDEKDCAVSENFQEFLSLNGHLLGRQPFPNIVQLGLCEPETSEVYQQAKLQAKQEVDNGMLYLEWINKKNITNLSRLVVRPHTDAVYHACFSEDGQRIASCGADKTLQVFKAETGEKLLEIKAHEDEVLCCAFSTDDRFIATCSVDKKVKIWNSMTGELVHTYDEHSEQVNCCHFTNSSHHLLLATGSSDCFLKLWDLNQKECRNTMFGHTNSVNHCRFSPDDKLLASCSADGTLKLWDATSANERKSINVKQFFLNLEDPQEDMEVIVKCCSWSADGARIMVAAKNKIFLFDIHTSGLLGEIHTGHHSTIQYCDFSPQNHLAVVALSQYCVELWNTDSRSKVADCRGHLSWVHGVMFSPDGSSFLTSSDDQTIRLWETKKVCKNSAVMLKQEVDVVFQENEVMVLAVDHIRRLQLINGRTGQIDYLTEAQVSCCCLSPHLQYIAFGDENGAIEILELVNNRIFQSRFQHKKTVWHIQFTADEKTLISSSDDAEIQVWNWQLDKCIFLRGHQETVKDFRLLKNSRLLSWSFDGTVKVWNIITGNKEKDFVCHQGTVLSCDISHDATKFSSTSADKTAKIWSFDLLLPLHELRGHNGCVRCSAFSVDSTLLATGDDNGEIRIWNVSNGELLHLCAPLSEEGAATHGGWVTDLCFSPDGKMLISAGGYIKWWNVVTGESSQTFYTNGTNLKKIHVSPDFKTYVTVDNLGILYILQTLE

[9] = target: Genome polyprotein (dengue virus type 2, UniProt P29990); experiment: Dengue-2 NS5 methyltransferase inhibitors, primary screen, biochemical, confirmation dose response (AID 588689); assay type: functional
[10] = target: T4, Polyadenylate-binding protein 1 (Homo sapiens, UniProt P11940); experiment: PABP1 MLLE–PAM2 interaction inhibitors, dose response, miRNA deadenylation inhibitor project, biochemical, fluorescence polarization, Cy5-PAM2 peptide, secondary (AID 602260); assay type: functional; settings: read-out: IC50_Mean
[11] = target: T4, Polyadenylate-binding protein 1; experiment: PABP1 MLLE–PAM2 binding inhibitor potency, dose response, biochemical, fluorescence polarization, FITC-PAM2 peptide (AID 602259); assay type: functional; settings: read-out: IC50_Mean
[12] = target: Albumin (Bos taurus, UniProt P02769); experiment: Counterscreen for inhibitors of T-cell receptor (TCR)-CD3 interaction: Fluorescence-based biochemical high throughput dose response assay to identify inhibitors of T-cell receptor (TCR)-CD3 interaction using a TAMRA-labeled BSA probe.; assay type: functional
[13] = target: Glutathione-S-transferase (Schistosoma japonicum, UniProt Q26513); experiment: biotin-GST/anti-GST TR-FRET signal inhibitors, dose response, artefact control for Vif-APOBEC3G degradation inhibitor project, biochemical (AID 1117362); assay type: functional
[14] = target: T5, Nucleotide-binding oligomerization domain-containing protein 1 (Homo sapiens, UniProt Q9Y239); experiment: SAR analysis of NF-kappaB dependent luciferase using DAP as an inducer - Set 2. [Related pubchem assays (depositor defined):AID1566, AID1575, AID1578, AID1579, AID1849, AID1852, AID2264]; assay type: functional
T5 sequence (Q9Y239 whole entry): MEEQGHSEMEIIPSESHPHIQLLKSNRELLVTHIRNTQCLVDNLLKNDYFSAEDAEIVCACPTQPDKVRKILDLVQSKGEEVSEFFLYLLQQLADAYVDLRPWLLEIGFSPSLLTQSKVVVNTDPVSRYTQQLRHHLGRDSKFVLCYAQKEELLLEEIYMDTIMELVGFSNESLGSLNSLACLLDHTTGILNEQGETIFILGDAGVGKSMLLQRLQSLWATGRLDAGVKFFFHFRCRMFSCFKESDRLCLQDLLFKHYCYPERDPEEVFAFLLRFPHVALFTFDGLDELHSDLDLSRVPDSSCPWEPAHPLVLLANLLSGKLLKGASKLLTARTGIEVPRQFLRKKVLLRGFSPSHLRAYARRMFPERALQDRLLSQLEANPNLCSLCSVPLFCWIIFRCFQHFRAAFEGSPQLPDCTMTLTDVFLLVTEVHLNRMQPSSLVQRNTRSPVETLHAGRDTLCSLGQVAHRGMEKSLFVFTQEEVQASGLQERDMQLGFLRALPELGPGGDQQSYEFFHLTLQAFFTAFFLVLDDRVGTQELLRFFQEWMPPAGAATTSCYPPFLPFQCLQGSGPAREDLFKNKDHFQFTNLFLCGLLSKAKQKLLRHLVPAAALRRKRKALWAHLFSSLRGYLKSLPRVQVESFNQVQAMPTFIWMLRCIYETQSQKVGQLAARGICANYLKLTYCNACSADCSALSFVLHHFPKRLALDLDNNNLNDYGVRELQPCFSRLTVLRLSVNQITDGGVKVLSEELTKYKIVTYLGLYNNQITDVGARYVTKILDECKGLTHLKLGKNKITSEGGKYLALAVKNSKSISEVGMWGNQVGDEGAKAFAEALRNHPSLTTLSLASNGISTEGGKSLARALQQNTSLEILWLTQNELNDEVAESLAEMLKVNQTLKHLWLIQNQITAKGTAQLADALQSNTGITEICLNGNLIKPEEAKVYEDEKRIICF

[15] = target: T6, Interleukin-8 (Homo sapiens, UniProt P10145); experiment: SAR analysis of Tumor necrosis factor alpha (TNF-alpha) induced IL-8 secretion in MCF-7/NOD1 cells - Set 2. [Related pubchem assays (depositor defined):AID1575, AID2250, AID2260]; assay type: functional, cell-based
T6 sequence (P10145 whole entry): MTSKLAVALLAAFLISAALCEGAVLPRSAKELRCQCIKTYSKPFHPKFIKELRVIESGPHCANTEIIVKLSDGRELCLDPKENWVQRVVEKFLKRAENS

[16] = target: T6, Interleukin-8; experiment: SAR analysis of GM-Tri-DAP induced IL-8 secretion in MCF-7/NOD1 cells - Set 2. [Related pubchem assays (depositor defined):AID1575, AID1578, AID2333]; assay type: functional, cell-based
[17] = target: Nucleotide-binding oligomerization domain-containing protein 2 (Homo sapiens, UniProt Q9HC29); experiment: NOD2 inhibitors, SAR follow-up, set 2 (AID 2475); assay type: functional
[18] = test system: HEK293; experiment: SAR analysis of compounds that are cytotoxic to HEK293 - Set 2. [Related pubchem assays (depositor defined):AID1575, AID1578, AID1849, AID2001, AID2333, AID2334, AID2335, AID2337, AID2800]; assay type: functional, cell-based; settings: Homo sapiens
[19] = target: T5, Nucleotide-binding oligomerization domain-containing protein 1; experiment: SAR analysis of compounds that inhibit NOD1 - Set 2. [Related pubchem assays (depositor defined):AID1566, AID1575, AID1578, AID1849, AID1852, AID2333, AID2335, AID2798]; assay type: functional
[20] = target: T5, Nucleotide-binding oligomerization domain-containing protein 1; experiment: SAR analysis of compounds that inhibit NOD1 - Set 3. [Related pubchem assays (depositor defined):AID1566, AID1575, AID1578, AID1849, AID1852, AID2333, AID2335, AID2466]; assay type: functional
[21] = test system: HEK293; experiment: SAR analysis of compounds that are cytotoxic to HEK293 - Set 3. [Related pubchem assays (depositor defined):AID1575, AID1578, AID1848, AID1849, AID2001, AID2333, AID2334, AID2335, AID2337, AID2469]; assay type: functional, cell-based; settings: Homo sapiens

T4 sequence (P11940 whole entry): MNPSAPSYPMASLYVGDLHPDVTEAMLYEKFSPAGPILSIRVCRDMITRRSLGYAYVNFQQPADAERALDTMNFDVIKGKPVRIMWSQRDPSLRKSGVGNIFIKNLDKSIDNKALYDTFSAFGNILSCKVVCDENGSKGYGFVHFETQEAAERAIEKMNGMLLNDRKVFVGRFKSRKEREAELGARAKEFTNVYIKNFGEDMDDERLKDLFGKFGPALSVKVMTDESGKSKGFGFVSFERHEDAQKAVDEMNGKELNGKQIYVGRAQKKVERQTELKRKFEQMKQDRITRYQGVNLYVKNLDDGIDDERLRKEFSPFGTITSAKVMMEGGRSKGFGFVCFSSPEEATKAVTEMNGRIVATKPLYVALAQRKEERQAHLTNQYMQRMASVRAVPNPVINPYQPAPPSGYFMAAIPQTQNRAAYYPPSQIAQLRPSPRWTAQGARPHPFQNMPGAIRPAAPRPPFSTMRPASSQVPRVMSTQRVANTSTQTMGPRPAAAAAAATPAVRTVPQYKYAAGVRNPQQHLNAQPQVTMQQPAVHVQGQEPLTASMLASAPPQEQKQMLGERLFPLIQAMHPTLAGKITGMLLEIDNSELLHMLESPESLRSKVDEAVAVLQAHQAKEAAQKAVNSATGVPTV
Glutathione-S-transferase, sequence (Q26513 whole entry, the tested form may be a part): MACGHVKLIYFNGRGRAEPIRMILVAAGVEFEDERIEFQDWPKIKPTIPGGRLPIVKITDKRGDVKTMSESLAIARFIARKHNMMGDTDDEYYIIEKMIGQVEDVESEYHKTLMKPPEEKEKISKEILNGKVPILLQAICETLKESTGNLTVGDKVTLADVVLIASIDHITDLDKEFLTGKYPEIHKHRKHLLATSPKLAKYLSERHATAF
Genome polyprotein, sequence (P29990 2492-3391 limits assumed): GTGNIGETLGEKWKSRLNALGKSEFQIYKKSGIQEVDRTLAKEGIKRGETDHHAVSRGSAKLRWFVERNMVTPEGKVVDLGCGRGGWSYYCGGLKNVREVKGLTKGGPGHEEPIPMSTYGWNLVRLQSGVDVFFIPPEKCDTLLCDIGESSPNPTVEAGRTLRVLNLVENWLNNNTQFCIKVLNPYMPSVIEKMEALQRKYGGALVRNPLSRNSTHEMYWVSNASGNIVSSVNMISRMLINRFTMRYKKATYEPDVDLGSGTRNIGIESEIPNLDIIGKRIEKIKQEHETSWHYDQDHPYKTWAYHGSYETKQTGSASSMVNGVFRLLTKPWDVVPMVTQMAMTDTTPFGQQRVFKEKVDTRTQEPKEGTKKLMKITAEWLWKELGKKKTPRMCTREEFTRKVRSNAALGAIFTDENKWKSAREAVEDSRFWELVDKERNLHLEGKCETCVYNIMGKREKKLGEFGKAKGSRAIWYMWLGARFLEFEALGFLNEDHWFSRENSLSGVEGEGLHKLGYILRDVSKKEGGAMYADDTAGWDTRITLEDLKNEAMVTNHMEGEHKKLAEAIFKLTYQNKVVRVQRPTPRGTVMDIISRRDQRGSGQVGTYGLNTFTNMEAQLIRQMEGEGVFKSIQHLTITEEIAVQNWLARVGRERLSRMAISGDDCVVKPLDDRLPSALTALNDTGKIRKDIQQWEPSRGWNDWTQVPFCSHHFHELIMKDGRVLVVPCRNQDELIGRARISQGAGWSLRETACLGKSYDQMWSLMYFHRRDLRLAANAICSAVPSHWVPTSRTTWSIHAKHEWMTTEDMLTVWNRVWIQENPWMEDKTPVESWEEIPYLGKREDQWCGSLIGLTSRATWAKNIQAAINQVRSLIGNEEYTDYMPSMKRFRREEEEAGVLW
Induced myeloid leukemia cell differentiation protein Mcl-1, sequence (Q07820 whole entry): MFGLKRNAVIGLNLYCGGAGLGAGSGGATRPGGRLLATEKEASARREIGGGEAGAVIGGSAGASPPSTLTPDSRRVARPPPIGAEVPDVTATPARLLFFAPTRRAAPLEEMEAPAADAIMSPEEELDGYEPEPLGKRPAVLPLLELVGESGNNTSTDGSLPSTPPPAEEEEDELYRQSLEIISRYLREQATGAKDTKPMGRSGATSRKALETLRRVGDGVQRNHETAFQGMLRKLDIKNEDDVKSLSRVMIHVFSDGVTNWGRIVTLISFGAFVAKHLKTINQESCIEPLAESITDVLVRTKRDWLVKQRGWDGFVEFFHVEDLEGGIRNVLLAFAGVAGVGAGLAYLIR
Large T antigen, sequence (P03070 whole entry): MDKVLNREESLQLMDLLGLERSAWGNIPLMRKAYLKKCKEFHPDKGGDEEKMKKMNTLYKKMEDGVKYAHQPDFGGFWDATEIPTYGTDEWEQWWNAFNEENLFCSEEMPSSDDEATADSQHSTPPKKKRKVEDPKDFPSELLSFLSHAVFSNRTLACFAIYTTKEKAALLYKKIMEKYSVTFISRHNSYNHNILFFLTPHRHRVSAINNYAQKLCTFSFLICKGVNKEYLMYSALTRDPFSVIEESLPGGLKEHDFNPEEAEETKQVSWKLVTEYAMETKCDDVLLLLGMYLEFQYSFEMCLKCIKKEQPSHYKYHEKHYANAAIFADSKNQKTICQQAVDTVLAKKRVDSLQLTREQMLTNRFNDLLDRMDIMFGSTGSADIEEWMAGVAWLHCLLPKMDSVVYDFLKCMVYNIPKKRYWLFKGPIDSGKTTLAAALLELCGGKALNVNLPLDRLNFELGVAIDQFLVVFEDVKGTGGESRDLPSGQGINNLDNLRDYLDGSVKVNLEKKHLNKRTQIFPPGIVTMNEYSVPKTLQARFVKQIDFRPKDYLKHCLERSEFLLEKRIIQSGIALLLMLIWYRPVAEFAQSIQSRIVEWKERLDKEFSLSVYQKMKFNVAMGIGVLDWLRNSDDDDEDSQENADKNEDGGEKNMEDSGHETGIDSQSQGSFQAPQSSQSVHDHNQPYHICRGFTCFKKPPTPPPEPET
Nucleotide-binding oligomerization domain-containing protein 2, sequence (Q9HC29 whole entry, the tested form may be a part): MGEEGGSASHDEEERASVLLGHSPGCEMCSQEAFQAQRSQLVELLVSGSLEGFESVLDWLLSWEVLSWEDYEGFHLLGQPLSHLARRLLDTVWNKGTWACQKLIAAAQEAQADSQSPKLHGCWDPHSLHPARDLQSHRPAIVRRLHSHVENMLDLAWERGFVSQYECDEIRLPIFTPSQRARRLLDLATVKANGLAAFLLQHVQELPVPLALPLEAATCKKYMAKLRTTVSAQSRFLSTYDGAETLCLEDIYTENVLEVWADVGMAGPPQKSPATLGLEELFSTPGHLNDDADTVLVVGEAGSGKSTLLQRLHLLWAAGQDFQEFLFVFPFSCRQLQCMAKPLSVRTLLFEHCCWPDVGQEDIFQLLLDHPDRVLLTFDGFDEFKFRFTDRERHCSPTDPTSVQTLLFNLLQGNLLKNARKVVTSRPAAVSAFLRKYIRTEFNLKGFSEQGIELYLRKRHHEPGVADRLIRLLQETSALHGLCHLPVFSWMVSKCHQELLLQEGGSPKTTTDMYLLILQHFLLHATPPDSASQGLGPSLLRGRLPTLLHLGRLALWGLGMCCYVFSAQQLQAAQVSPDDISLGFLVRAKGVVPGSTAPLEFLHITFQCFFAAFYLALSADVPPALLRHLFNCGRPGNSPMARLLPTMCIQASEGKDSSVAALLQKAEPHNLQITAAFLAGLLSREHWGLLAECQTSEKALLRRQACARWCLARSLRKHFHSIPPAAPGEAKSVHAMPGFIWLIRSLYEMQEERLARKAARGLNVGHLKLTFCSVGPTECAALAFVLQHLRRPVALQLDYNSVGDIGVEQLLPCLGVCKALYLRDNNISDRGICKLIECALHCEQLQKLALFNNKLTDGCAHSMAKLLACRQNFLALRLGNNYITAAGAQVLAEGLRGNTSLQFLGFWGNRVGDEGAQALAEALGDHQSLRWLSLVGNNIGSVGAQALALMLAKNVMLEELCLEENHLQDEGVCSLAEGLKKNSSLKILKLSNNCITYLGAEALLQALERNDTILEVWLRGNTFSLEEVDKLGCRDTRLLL
Dual specificity protein phosphatase 3, sequence (P51452 whole entry): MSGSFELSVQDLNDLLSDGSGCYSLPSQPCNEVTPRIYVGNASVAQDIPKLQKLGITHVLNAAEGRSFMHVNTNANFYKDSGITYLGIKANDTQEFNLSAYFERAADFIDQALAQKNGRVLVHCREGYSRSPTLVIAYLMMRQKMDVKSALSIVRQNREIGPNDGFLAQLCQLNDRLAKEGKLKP
Eukaryotic translation initiation factor 4E, sequence (P63073 whole entry): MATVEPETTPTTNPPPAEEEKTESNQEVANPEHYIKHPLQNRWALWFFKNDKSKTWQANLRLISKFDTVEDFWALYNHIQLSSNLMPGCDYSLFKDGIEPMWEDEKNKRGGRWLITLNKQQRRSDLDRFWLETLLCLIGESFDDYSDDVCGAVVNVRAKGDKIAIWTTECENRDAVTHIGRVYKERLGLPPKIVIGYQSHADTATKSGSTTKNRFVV
Albumin, sequence (P02769 whole entry): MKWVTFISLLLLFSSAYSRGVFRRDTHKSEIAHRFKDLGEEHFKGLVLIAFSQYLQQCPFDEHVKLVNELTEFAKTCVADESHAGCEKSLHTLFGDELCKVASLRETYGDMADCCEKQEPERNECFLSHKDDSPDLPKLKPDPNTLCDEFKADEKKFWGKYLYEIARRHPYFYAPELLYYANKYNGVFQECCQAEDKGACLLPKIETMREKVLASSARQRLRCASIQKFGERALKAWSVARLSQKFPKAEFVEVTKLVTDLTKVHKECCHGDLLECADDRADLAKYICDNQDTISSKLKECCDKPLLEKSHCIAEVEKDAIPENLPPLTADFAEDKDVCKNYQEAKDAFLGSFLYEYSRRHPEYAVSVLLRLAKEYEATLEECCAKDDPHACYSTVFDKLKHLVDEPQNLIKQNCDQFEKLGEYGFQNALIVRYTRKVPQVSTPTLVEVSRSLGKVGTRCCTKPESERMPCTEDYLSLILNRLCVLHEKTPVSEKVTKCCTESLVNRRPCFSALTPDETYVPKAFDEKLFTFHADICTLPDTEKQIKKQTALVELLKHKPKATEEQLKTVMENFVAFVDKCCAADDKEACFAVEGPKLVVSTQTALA

`COCCNC(=O)Nc1ccc2nc(-c3ccco3)c(-c3ccco3)nc2c1` was tested, and the IC50 [1] was > 100 µM (active), the IC50 [2] was 0.831 µM (active) and the IC50 [3] was 0.492 µM (active). The AC50 [4] was 63.1 µM (active), the AC50 [5] was 23.5 µM (active) and the IC50 [6] was 0.198 µM (active). The IC50 [7] was 50 µM (inactive), the IC50 [8] was 52 µM (active) and the IC50 [9] was 27.9 µM (active). For the same molecule, the IC50 [10] was > 66 µM (inactive), the IC50 [11] was 39.2 µM (inactive) and the IC50 [12] was > 94.1 µM (inactive). For the same molecule, the IC50 [13] was > 100 µM (active).

With `CCCCn1c(SCC(=O)Nc2nnc(CC)s2)nc2c1c(=O)n(C)c(=O)n2C` the IC50 [14] was > 25 µM (inactive), the IC50 [15] was > 25 µM (inactive) and the IC50 [16] was > 25 µM (inactive). For the same molecule, the IC50 [17] was 7.19 µM (active), the IC50 [18] was > 20 µM (inactive) and the IC50 [19] was 7.92 µM (active). For the same molecule, the IC50 [20] was 9.39 µM (active) and the IC50 [21] was > 20 µM (inactive).
